Data reported in patent US10640457B2, “Histone acetyltransferase activators and uses thereof” (The Trustees of Columbia University in the City of New York, priority 2009, dated 2020).

Assays:
[1] = literature [22, 23]; cited from earlier work
[2] = Solubility observations; format: physicochemical
[3] = literature [22, 23]; cited from earlier work; remark: listed apart in the source
[4] = target: T1, Sirtuin 1 (Homo sapiens, UniProt Q96EB6); test: Sirtuin 1 fluorogenic activity assay
T1 sequence (Q96EB6 1-747): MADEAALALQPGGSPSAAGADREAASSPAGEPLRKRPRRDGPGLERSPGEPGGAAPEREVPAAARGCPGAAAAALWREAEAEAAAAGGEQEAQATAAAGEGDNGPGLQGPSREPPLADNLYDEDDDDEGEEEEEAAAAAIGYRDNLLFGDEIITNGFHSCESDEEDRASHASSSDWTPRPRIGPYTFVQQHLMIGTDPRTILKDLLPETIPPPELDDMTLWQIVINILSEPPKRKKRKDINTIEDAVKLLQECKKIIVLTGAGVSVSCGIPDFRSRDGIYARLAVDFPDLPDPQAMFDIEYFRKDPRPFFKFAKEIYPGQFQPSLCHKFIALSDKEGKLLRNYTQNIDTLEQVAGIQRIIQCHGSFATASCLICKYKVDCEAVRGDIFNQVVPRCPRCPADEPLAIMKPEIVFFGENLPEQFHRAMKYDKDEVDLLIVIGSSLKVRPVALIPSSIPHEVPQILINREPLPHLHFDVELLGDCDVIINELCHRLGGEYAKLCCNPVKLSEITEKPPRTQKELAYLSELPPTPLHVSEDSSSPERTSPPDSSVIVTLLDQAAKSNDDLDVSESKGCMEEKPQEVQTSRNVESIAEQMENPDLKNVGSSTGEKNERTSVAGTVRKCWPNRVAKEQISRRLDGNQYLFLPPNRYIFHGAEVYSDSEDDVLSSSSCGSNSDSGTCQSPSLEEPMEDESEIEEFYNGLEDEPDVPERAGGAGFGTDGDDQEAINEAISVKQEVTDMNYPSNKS

[5] = target: T2, Sirtuin 2 (Homo sapiens, UniProt Q8IXJ6); test: Sirtuin 2 fluorogenic activity assay
T2 sequence (Q8IXJ6 1-389): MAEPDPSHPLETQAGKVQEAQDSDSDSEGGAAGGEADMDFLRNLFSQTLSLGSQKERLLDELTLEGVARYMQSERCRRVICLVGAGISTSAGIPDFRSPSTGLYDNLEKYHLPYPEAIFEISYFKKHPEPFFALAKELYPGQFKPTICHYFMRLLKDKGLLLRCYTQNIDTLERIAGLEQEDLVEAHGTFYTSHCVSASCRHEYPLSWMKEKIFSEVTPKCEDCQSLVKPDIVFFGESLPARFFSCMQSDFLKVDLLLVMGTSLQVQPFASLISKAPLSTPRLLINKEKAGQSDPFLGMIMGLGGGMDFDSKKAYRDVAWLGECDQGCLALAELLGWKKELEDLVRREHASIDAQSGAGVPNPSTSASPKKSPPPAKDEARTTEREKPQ

[6] = literature [P48]; cited from earlier work

Row | SMILES | membrane permeability [1] | solubility [3] | further results
1 | CCOc1ccccc1C(=O)Nc1ccc(Cl)c(C(F)(F)F)c1 [6J, N-(4-chloro-3-trifluoromethyl-phenyl)-2-ethoxy-benzamide] | membrane-impermeable | insoluble | solubility in H2O [2]: no solubility
2 | CCCCCCCCCCCCCCCc1cccc(OCC)c1C(=O)Nc1ccc(Cl)c(C(F)(F)F)c1 [CTPB] | membrane-impermeable | insoluble | –
3 | O=C(CCCCCCC(=O)Nc1ccccc1)NO [SAHA, reference compound] | – | – | IC50 [4]: > 10 µM; IC50 [5]: > 10 µM
4 | Cc1cc(-c2ccccc2)nnc1NCCN1CCOCC1 [minaprine] | – | – | brain/blood ratio [6]: > 2
